In US11607423B2, “Combination of a cannabinoid and a chemotheraopeutic agent for the treatment of breast cancer” (Akos Biosciences, Inc., priority 2018, dated 2023):

Experiments:
[1] = tested on: breast cancer cell line MCF7; assay: MCF7 cell viability by cell counting with trypan blue after 48 h; type: cell-based; settings: CBD 0.1, 1 or 10 μM, FIG. 1
Excerpt: The breast cancer cell line MCF7, growing exponentially, was reset at a concentration of 1×10^4/ml and allowed to adhere overnight.

pERK = pERK level by western blotting in MCF7 cells, relative to GAPDH loading control; type: cell-based; settings: CBD 100 nM, 1 μM or 10 μM, 48 h, band density relative to GAPDH, 5 separate experiments, FIG. 2
Procedure: The breast cancer cell line MCF7, growing exponentially, was reset at a concentration of 1×10^4/ml and allowed to adhere overnight. Cannabidiol (CBD) was added at 100 nM, 1 μM, or 10 μM, and cells were harvested for standard western blotting techniques after 48 h. Immunoprobing was performed using anti-pERK antibodies, and the densities of each band determined. These values were then expressed relative to a GAPDH loading control.

C=C(C)[C@@H]1CCC(C)=C[C@H]1c1c(O)cc(CCCCC)cc1O [CBD, cannabidiol]
viability of cancer cells [1]: unaffected | pERK relative to controls (pERK): increased
